Measured values published in paper PMC13334477 (RSC Medicinal Chemistry, 2026).
Where two headings read alike, the source gives them in different places.

Tests used:
HIV-1 = settings: at 1.56 μM
TG4T DNA G4 (parallel) = assay: Native ESI-MS, TG4T; format: binding; settings: 10 μM DNA, 20 μM ligand, 100 mM ammonium acetate
Experimental: (§1) Oligonucleotides were purchased lyophilized and RP-cartridge purified from Eurogentec (Kanaka Eurogentec, Seraing, Belgium), then buffer exchanged with ammonium acetate (5 M; Sigma-Aldrich, Saint-Quentin-Fallavier, France) using Amicon Ultra (3 K cut-off; Merck Millipore, Cork, Ireland). The concentrations of the initial stock solutions of DNA/RNA (∼1 mM) were measured by UV absorbance at 260 nm. Sample solutions were prepared by diluting the appropriate volume of oligonucleotide stock solutions to reach 10 μM of DNA/RNA and 20 μM of ligand, in 100 mM ammonium acetate. The solutions were incubated for 16 h at 4 °C before analysis by mass spectrometry. […] These parameters ensured a good signal intensity without disrupting noncovalent complexes, which was verified using d[G4T4G4]2 as a control. The presented spectra of all DNA/RNA used in this work (Fig. 5, S9 and S10) result from 8 min accumulations. The abundance of each species, M, M + 1L, M + 2L and M + 3L complexes, where M is a monomer oligonucleotide and L is a ligand, was determined from their peak area signals (A), from the sum of the −4, −5 and −6 charge states for DNA and from the sum of the −5, −6 and −7 charge states for RNA, assuming that their response factors are equal. The molar concentrations were then calculated knowing the total amount of oligonucleotide [M]tot: [drawing 1] [drawing 2] [drawing 3] [drawing 4] The concentration of the free ligand, [L]free, was determined from its total concentration [L]tot:[L]free = [L]tot − [M + 1L] − 2[M + 2L] − 3[M + 3L]Apparent consecutive dissociation constants (Kd1, Kd2 and Kd3) were calculated by using the following equations: [drawing 5] [drawing 6] [drawing 7]
(§2) We further analysed the formation of the DBA/G4 complexes by native electrospray ionization mass spectrometry (ESI-MS). We initially attempted to analyze DBA binding to the primary G4 targets from HIV-1 (HIVpro1, HIVpro2, LTR4 and rLTR4 RNA). […] These sequences span the major G4 topological classes and provide a representative assessment of DBA binding across diverse G4 architectures. We also included two DNA duplex controls (DK100 and DK66) to evaluate binding selectivity. This ESI-MS approach enables direct determination of binding stoichiometry, quantification of each species in solution, and calculation of dissociation constants (Kd) from the relative abundances of free and bound forms.[88,97]
(§3) In the ESI-MS conditions, the rLTR4 G4 (10 μM) forms a dimeric structure. […] Among the six DNA and RNA tested here (Fig. 5B, S9 and S10) only rLTR4 presented 1 : 3 G4/DBA complexes. In all cases but one, the 1 : 1 stoichiometry represents the major species in solution while for rLTR4 it is the 1 : 2 (green). […] For TG4T tetramolecular G4 or G4T4G4 bimolecular G4 only 1 : 1 and 1 : 2 complexes were detected (Fig. S9A and S10A). […] The weakest binding was obtained for the G4T4G4 antiparallel G4 and Htel sequence with Kd1s ranging from 11 μM for to 500 μM (Table 2).

[1] = system: Htel (DNA, G4) AGGGTTAGGGTTAGGGTTAGGG; assay: native ESI-MS; settings: 100 mM ammonium acetate (NH4+), no K+; apparent, site 1 of 2; 10 μM DNA, 20 μM ligand, 4 °C incubation
DK66 DNA duplex = assay: Native ESI-MS, DK66; format: binding; settings: 10 μM DNA, 20 μM ligand, 100 mM ammonium acetate
Experimental: as §1, §2, §3

[2] = system: Htel-FT (human telomeric DNA G4); assay: FRET melting assay, Htel-FT; format: binding; settings: ligand 1 μM, DNA 0.2 μM
Experimental: Doubly labelled oligonucleotides with fluorescein and TAMRA were purchased lyophilized and RP-cartridge purified from Eurogentec (Kanaka Eurogentec, Seraing, Belgium). FRET melting experiments were run on Stratagene Mx3005P real-time PCR equipment in 96-well plates on the DNA sequences listed Table 1. Experiments were performed in 10 mM lithium cacodylate buffer (pH 7.2) and 10 mM KCl and 90 mM LiCl as previously described.[45,46] The DNA concentration was 0.2 μM. The stabilization (ΔT1/2) induced by compounds was calculated as the difference between the Tm of the nucleic acid alone and that measured with a ligand concentration of 1 μM. Data are presented as averages of three independent measurements, each conducted in duplicate (λexc = 492 nm, λem = 516 nm, T interval = 25–95 °C, ramp: 25 °C for 5 min, then 1 °C min^−1, measurements every 1 °C, 8× magnification of the fluorescence signal). The G4 selectivity of the ligands with respect to the duplex was evaluated by determining the Tm values in the presence of 0, 3 or 10 μM of the duplex competitor ds26.
In this assay, we performed thermal denaturation experiments by heating and recording the fluorescence of DNA oligonucleotides doubly labelled with fluorescein and TAMRA fluorophores (Fig. 3 and S7). Ligand binding to the G4 stabilises the structure, resulting in an increase in the half-dissociation temperature of the structure (ΔT1/2). As a first approximation, the higher the ΔT1/2 (ΔT1/2 higher), the higher the affinity of the ligand for the target.[45]
The fluorescently labeled oligonucleotides were dissolved at a concentration of 0.2 μM in 10 mM lithium cacodylate buffer (pH 7.2) with 10 mM KCl and 90 mM LiCl. […] E) Radar plot representation that summarizes the FRET-melting results (ΔT1/2 (°C)) for each ligand in the presence of HIVpro1-FT (green), HIVpro2-FT (grey), LTR4-FT (bleu), and Htel-FT (red). Data are the results of at least three independent experiments in which each data point was performed in duplicate.

[3] = system: DK66 (DNA, duplex) CGCGAATTCGCG; assay: native ESI-MS; settings: 100 mM ammonium acetate (NH4+), no K+, apparent, 10 μM DNA, 20 μM ligand, 4 °C incubation
DK100 DNA duplex = assay: Native ESI-MS, DK100; format: binding; settings: 10 μM DNA, 20 μM ligand, 100 mM ammonium acetate
Experimental: as §1, §2, §3

[4] = Cell viability assay (CellTiter 96 AQueous One); format: cell-based; settings: human, at 1.56 μM
[5] = system: G4T4G4 (DNA, G4) GGGGTTTTGGGG; assay: native ESI-MS; settings: 100 mM ammonium acetate (NH4+), no K+; apparent, site 1 of 2; 10 μM DNA, 20 μM ligand, 4 °C incubation

Question: With `c1ccc(-[n+]2c3ccc4ccccc4c3cc3c4ccccc4ccc32)cc1` [DBA5] as the compound, how does the “reduction of viral infectivity” value (HIV-1) read?
Answer: ~40%

Question: What about the Kd (TG4T DNA G4 (parallel); read-out: Kd1 TG4T) of the same compound?
Answer: 21.6 µM

Question: And the Kd (TG4T DNA G4 (parallel); read-out: Kd2 TG4T)?
Answer: 89.4 µM

Question: What about the Kd1 [1] of the same compound?
Answer: 14.47 µM

Question: And the Kd (DK66 DNA duplex; read-out: Kd1 DK66)?
Answer: 75.4 µM

Question: What about the Kd (DK66 DNA duplex; read-out: Kd2 DK66) of the same compound?
Answer: 117 µM

Question: What about the “ΔT1/2 Htel” value ([2]; +10µM ds26) of the same compound?
Answer: 9.0±0.1 °C

Question: What about the “ΔT1/2 Htel” value ([2]; No ds26) of the same compound?
Answer: 12.2±0.1 °C

Question: What about the Kd1 ([3]; site 1 of 2) of the same compound?
Answer: 75.39 µM

Question: And the Kd (DK100 DNA duplex; read-out: Kd1 DK100)?
Answer: 40 µM

Question: And the Kd (DK100 DNA duplex; read-out: Kd2 DK100)?
Answer: 67.7 µM

Question: What about the viability at 24 h, 1.56 µM [4] of the same compound?
Answer: 100%

Question: For `COc1ccc(-[n+]2c3ccc4cc(OC)ccc4c3cc3c4ccc(OC)cc4ccc32)cc1` [DBA3], which Kd (TG4T DNA G4 (parallel); read-out: Kd1 TG4T) is on record?
Answer: 13.6 µM

Question: What about the Kd (TG4T DNA G4 (parallel); read-out: Kd2 TG4T) of the same compound?
Answer: 52.2 µM

Question: What about the Kd (DK66 DNA duplex; read-out: Kd1 DK66) of the same compound?
Answer: 1070 µM

Question: And the “ΔT1/2 Htel” value ([2]; +10µM ds26)?
Answer: 14±0.1 °C

Question: What about the Kd1 ([3]; almost no complex detected) of the same compound?
Answer: 1071.92 µM

Question: And the Kd (DK100 DNA duplex; read-out: Kd1 DK100)?
Answer: 156 µM

Question: What about the Kd (DK100 DNA duplex; read-out: Kd2 DK100) of the same compound?
Answer: 618 µM

Question: What about the Kd1 [5] of the same compound?
Answer: 36.88 µM

Question: With `COc1ccc2c(ccc3c2cc2c4ccc(OC)cc4ccc2[n+]3-c2ccccc2)c1` [DBA1] as the compound, how does the Kd (TG4T DNA G4 (parallel); read-out: Kd1 TG4T) read?
Answer: 14.7 µM

Question: And the Kd (TG4T DNA G4 (parallel); read-out: Kd2 TG4T)?
Answer: 46 µM

Question: What about the Kd (DK66 DNA duplex; read-out: Kd1 DK66) of the same compound?
Answer: 4830 µM

Question: And the “ΔT1/2 Htel” value ([2]; +10µM ds26)?
Answer: 13±0.5 °C

Question: And the “ΔT1/2 Htel” value ([2]; No ds26)?
Answer: 17±0.2 °C

Question: What about the Kd1 ([3]; almost no complex detected) of the same compound?
Answer: 4833.59 µM

Question: What about the Kd (DK100 DNA duplex; read-out: Kd1 DK100) of the same compound?
Answer: 1030 µM

Question: For `COC(=O)c1ccc(-[n+]2c3ccc4cc(OC)ccc4c3cc3c4ccc(OC)cc4ccc32)cc1` [DBA2], which Kd (TG4T DNA G4 (parallel); read-out: Kd1 TG4T) is on record?
Answer: 6.09 µM

Question: What about the Kd (TG4T DNA G4 (parallel); read-out: Kd2 TG4T) of the same compound?
Answer: 25.9 µM

Question: What about the Kd (DK66 DNA duplex; read-out: Kd1 DK66) of the same compound?
Answer: 712 µM

Question: What about the “ΔT1/2 Htel” value ([2]; +10µM ds26) of the same compound?
Answer: 12±0.6 °C

Question: And the Kd1 ([3]; almost no complex detected)?
Answer: 711.55 µM

Question: And the Kd (DK100 DNA duplex; read-out: Kd1 DK100)?
Answer: 833 µM

Question: With `COc1ccc2c(ccc3c2cc2c4ccc(OC)cc4ccc2[n+]3-c2ccc([N+](=O)[O-])cc2)c1` [DBA4] as the compound, how does the “reduction of viral infectivity” value (HIV-1) read?
Answer: approximately 20%

Question: And the Kd (TG4T DNA G4 (parallel); read-out: Kd1 TG4T)?
Answer: 5.42 µM

Question: What about the Kd (TG4T DNA G4 (parallel); read-out: Kd2 TG4T) of the same compound?
Answer: 22.7 µM

Question: And the Kd1 [1]?
Answer: 11.21 µM

Question: What about the Kd (DK66 DNA duplex; read-out: Kd1 DK66) of the same compound?
Answer: 165 µM

Question: What about the Kd (DK66 DNA duplex; read-out: Kd2 DK66) of the same compound?
Answer: 308 µM

Question: And the “ΔT1/2 Htel” value ([2]; +10µM ds26)?
Answer: 14±0.3 °C

Question: And the Kd1 ([3]; site 1 of 2)?
Answer: 165.13 µM

Question: What about the Kd (DK100 DNA duplex; read-out: Kd2 DK100) of the same compound?
Answer: 142 µM

Question: What about the viability at 24 h, 1.56 µM [4] of the same compound?
Answer: 100%
